Several values for one entry are separate records, joined by “and”; a condition that tells them apart may be missing. Identical values can stand only once.
How the values were obtained:
LAMP-2 = LAMP-2 protein (immunoblot) and mRNA (RT-qPCR) in PMM-deficient fibroblasts; assay type: cell-based, human; details: 10 μM epalrestat
Source text: (§1) Effect of epalrestat on glycosylation biomarkers in vitro: Immunoblotting and RT-qPCR were used to measure Intercellular Adhesion Molecule 1 (ICAM-1) and Lysosomal Associated Membrane Protein 2 (LAMP-2) protein and mRNA expression levels, respectively, as cellular markers of N-glycosylation (Ferrer et al., Mol Genet Metab 131:424-429, 2020; He et al., J Biol Chem 287:18210-18217, 2012; Eskelinen, Mol Aspects Med 27:495-502, 2006; and Radenkovic et al., Mol Genet Metab 132:27-37, 2021) in 10 PMM-deficient fibroblast lines (P1-P6, P8, P17, P19, and P24) and in control fibroblasts, treated with 10 μM epalrestat (the optimal dose based on PMM enzyme activity as described above).

ICAM-1 = ICAM-1 protein (immunoblot) and mRNA (RT-qPCR) in PMM-deficient fibroblasts; assay type: cell-based, human; details: 10 μM epalrestat
Source text: as §1

[1] = Epalrestat plasma pharmacokinetics (LC-MS/MS) in patient P1; assay type: in vivo, human
Experimental: Pharmacokinetics: Epalrestat plasma concentrations were measured using an LC-MS/MS assay that was validated according to principles outlined in FDA Guidance Documents. Epalrestat-d5 was utilized as the internal standard. The mass spectrometer was coupled to a Waters Acquity H class ultra-performance liquid chromatography system (Milford, MA). Data were acquired and analyzed with Waters MassLynx v4.1 software. The chromatographic separation of epalrestat and the internal standard was accomplished using an Agilent Infinity Lab Poroshell 120 EC-C18 column, 2.1×100 mm, 2.7 μm (ChromTech, Apple Valley, MN) with an Agilent Poroshell 120 EC-C18 precolumn, 2.1×5 mm, 2.7 μm (ChromTech). Plasma samples were analyzed after protein precipitation with methanol, concentration to dryness under nitrogen, and reconstitution in methanol:water (1:1 v/v). Pharmacokinetics were estimated by non-linear least squares regression using the program Phoenix WinNonlin.

[2] = test system: PMM-deficient fibroblasts; experiment: Glycoproteomics of PMM-deficient fibroblasts treated with epalrestat or vehicle; assay type: cell-based, human
Source text: (§2) Proteomics and glycoproteomics: Cell were scraped in PBS, pH 7.4 and sonicated with a tip sonicator at 40% amplitude for 3 cycles of 10 seconds each. Equal amount of proteins were digested with trypsin as described elsewhere (Mun et al., Anal Chem 92:14466-14475, 2020). The digested peptides were labeled with tandem mass tag (TMT) reagents as per the manufacturer's instructions (ThermoFisher). Labelled samples were pooled, and either size-exclusion chromatography or basic pH reversed-phase fractionation was performed. An aliquot of dried peptides was resuspended in 100 μL of 0.1% formic acid and injected into Superdex peptide 10/300 column (GE Healthcare). Twenty-one (21) early fractions were collected starting at 10 minutes after injection (total run time of 130 minutes) and analyzed by LC-MS/MS as described elsewhere (Mun et al., supra). Another aliquot of total peptides was cleaned up by C18 TopTips (Glygen) and fractionated by bRPLC on a reversed phase C18 column (4.6×100 mm column). Twelve (12) fractions were dried and re-suspended in 0.1% formic acid for LC-MS/MS analysis.
(§3) A modification of the LC-MS/MS parameters described by Mun et al. (supra) were used. Specifically, 21 early fractions from SEC and 12 fractions of bRPLC were analyzed by Orbitrap Exploris480 mass spectrometer (Thermo Fisher Scientific) coupled to an EASY-Spray column (Thermo Fisher Scientific). Every run was 130 minutes with a flow rate of 300 nL/minute. The gradient used for separation was: equilibration at 3% solvent B from 0 to 4 minutes, 3% to 10% sol B from 4 to 10 minutes, 10% to 35% sol B from 10.1 to 125 minutes, and 35% to 80% sol B from […]. All experiments were done in DDA mode with the top 15 ions isolated at a window of 0.7 m/z and a default charge state of +2. Charge states ranging from +2 to +7 were considered for MS/MS events. Stepped collision energy was applied to precursors at normalized collision energies of 15, 25, and 40. The MS precursor mass range was set to 375 to 2000 m/z and 100 to 2000 for MS/MS. The automatic gain control for MS and MS/MS were 1×10^6 and 1×10^5 and the injection times to reach AGC were 50 ms and 250 ms, respectively. 60 second dynamic exclusion was applied. Data acquisition was performed with the option of Lock mass (441.1200025 m/z) for all data.
Database searching and analysis: The publicly available software pGlyco Version 2.2.0 was used (Zeng et al., Sci Rep 6:25102, 2016; and Liu et al., Nat Commun 8:438, 2017). A glycan database containing 8,092 entries and Uniprot Human Reviewed protein sequences (20,432 entries) were used as protein sequence fasta files. Cleavage specificity was set to fully tryptic with 2 missed cleavages, and precursor and fragment tolerance were set to 5 and 20 ppm. […] Reporter ion quantification was performed in Proteome Discoverer 2.5 using “reporter ion quantifier” node and Ids were matched with quantitation on a scan-to-scan basis (MS/MS). […]
To compare responders (patients who had more than a 20% increase in enzyme activity after epalrestat treatment) to non-responders (patients who had less than a 20% increase in enzyme activity after epalrestat treatment) and gauge the increase in glycosylation upon epalrestat treatment, linear fold changes (treated/untreated) were calculated for each of these 412 glycopeptides. The fold changes of non-responders were subtracted from the fold changes of the responders, and the fold change difference (delta fold change) was calculated. […]

[3] = test system: PMM-deficient fibroblasts; experiment: Multiplexed proteomics of PMM-deficient fibroblasts treated with epalrestat or vehicle; assay type: cell-based, human
Source text: as §2, §3
Database searching and analysis: The publicly available software pGlyco Version 2.2.0 was used (Zeng et al., Sci Rep 6:25102, 2016; and Liu et al., Nat Commun 8:438, 2017). A glycan database containing 8,092 entries and Uniprot Human Reviewed protein sequences (20,432 entries) were used as protein sequence fasta files. […] Reporter ion quantification was performed in Proteome Discoverer 2.5 using “reporter ion quantifier” node and Ids were matched with quantitation on a scan-to-scan basis (MS/MS). […]

concentration at 8 h ([1]; human, plasma, oral, 5 mg, patient P1, after eight hours, read-out: trough level before the next dose): 23.4 ng/mL and 100 nM
AUC ([1]; human, plasma, oral, patient P1, after a 5 mg dose, read-out: systemic exposure (AUC)): 2790 ng·h/mL
half-life ([1]; human, plasma, po, 5 mg, patient P1, oral dose, plasma, read-out: t½ (converted)): ~1.04 h
oral clearance ([1]; patient P1, after a 5 mg dose): 1.8 L/h
time of peak concentration after administration ([1]; patient P1, oral 0.27 mg/kg (5 mg) dose): one
peak concentration in plasma ([1]; patient P1, oral 0.27 mg/kg (5 mg) dose, 0.27 mg/kg): 1125 ng/ml and 3.5 μM
plasma concentration over time profile ([1]; patient P1, oral dose): rapid absorption and elimination
t½ ([1]; patient P1, oral dose, plasma): 1 to 2 h
SMILES: CC(/C=C1\SC(=S)N(CC(=O)O)C1=O)=C\c1ccccc1 [epalrestat]
LAMP-2 mRNA expression (LAMP-2): no effect
ICAM-1 mRNA expression (ICAM-1): no effect
share of reduced glycopeptides improved post-treatment ([2]; 665 of 1,448): 46%
improved glycopeptides that had reduced glycosylation in PMM-deficient fibroblasts compared to controls ([2]; among the 412 improved): 97 glycopeptides
number of glycopeptides improved post-treatment, becoming similar to controls ([2]; of 1,448 reduced in untreated PMM-deficient fibroblasts): 665 glycopeptides
number of glycopeptides with differential (enhanced) abundance after epalrestat ([2]; paired epalrestat vs vehicle): 412 glycopeptides
ICAM-1 Asn267 glycopeptide (Hex7HexNAc6NeuAc2Fuc5) increase in abundance ([2]; paired epalrestat vs. vehicle analysis): 10%
Sorbitol dehydrogenase (SORD) increase in abundance ([3]; epalrestat-treated vs untreated PMM2-CDG fibroblasts): 11%
number of proteins increased post treatment (30% cutoff) ([3]; of the 13 changed proteins): 12
number of proteins different post-treatment with a 30% or bigger change cutoff ([3]; paired analysis before and after epalrestat): 13 proteins
number of proteins different post-treatment ([3]; paired analysis before and after epalrestat, P1-P6 fibroblasts): 628 proteins

Reference: US20240003908A1, “POLYOL BIOMARKERS FOR CONGENITAL DISORDERS OF GLYCOSYLATION” (Mayo Foundation for Medical Education and Research, priority 2020, published 2024)
